Results reported in ChEMBL document CHEMBL1201861, “Genomics of Drug Sensitity in Cancer screening data, Wellcome Trust Sanger Institute”.

What was measured:
NCI-H2227 = assay: cells; format: functional, cell-based; details: Homo sapiens;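 further: growth inhibition of the human cell line, read out with a cell viability assay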
Description: SANGER: Inhibition of human NCI-H2227 cell growth in a cell viability assay.

NCI-H719 = assay: cells; format: functional, cell-based; details: Homo sapiens;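 further: growth inhibition of the cultured cell line, read out with a viability assay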
Description: SANGER: Inhibition of human NCI-H719 cell growth in a cell viability assay.

COR-L279 = assay: SANGER: Inhibition of human COR-L279 cell growth in a cell viability assay.; format: functional, cell-based
L-540 = assay: cells; format: functional, cell-based; details: Homo sapiens;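 further: growth inhibition of the human L-540 cell line, read out with a viability assay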
Description: SANGER: Inhibition of human L-540 cell growth in a cell viability assay.

SKM-1 = assay: SANGER: Inhibition of human SKM-1 cell growth in a cell viability assay.; format: functional, cell-based
BL-70 = assay: SANGER: Inhibition of human BL-70 cell growth in a cell viability assay.; format: functional, cell-based
JIYOYE = assay: cells; format: functional, cell-based; details: Homo sapiens
Description: SANGER: Inhibition of human JiyoyeP-2003 cell growth in a cell viability assay.

TALL-1 = assay: cells; format: functional, cell-based; details: Homo sapiens;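 further: growth inhibition of cultured human TALL-1 cells, read out by a cell viability assay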
Description: SANGER: Inhibition of human TALL-1 cell growth in a cell viability assay.

OPM-2 = assay: cells; format: functional, cell-based; details: Homo sapiens;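 further: growth of OPM-2 cells measured with a viability assay, IC50 for suppression of proliferation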
Description: SANGER: Inhibition of human OPM-2 cell growth in a cell viability assay.

NCI-H322M = assay: cells; format: functional, cell-based; details: Homo sapiens;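 further: cell viability assay measuring inhibition of growth of human NCI-H322M cells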
Description: SANGER: Inhibition of human NCI-H322M cell growth in a cell viability assay.

Daudi = assay: cells; format: functional, cell-based; details: Homo sapiens;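 further: growth inhibition of Daudi cells, read out by a viability assay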
Description: SANGER: Inhibition of human Daudi cell growth in a cell viability assay.

CESS = assay: SANGER: Inhibition of human CESS cell growth in a cell viability assay.; format: functional, cell-based
SR = assay: cells; format: functional, cell-based; details: Homo sapiens
Description: SANGER: Inhibition of human SR cell growth in a cell viability assay.

SNU-C1 = assay: cells; format: functional, cell-based; details: Homo sapiens;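 further: growth inhibition of SNU-C1 human cells, read out by a cell viability assay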
Description: SANGER: Inhibition of human SNU-C1 cell growth in a cell viability assay.

ECC12 = assay: cells; format: functional, cell-based; details: Homo sapiens
Description: SANGER: Inhibition of human ECC12 cell growth in a cell viability assay.

LC-1F = assay: cells; format: functional, cell-based; details: Homo sapiens;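 further: growth inhibition of human LC-1F cells, read out with a cell viability assay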
Description: SANGER: Inhibition of human LC-1F cell growth in a cell viability assay.

NCI-H2196 = assay: cells; format: functional, cell-based; details: Homo sapiens;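 further: cell viability assay used as the readout of growth inhibition in NCI-H2196 cells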
Description: SANGER: Inhibition of human NCI-H2196 cell growth in a cell viability assay.

MC-CAR = assay: cells; format: functional, cell-based; details: Homo sapiens;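 further: growth inhibition of the human MC-CAR cell line, read out by a cell viability assay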
Description: SANGER: Inhibition of human MC-CAR cell growth in a cell viability assay.

TUR = assay: cells; format: functional, cell-based; details: Homo sapiens;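 further: growth inhibition of human TUR cells, read out with a cell viability assay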
Description: SANGER: Inhibition of human TUR cell growth in a cell viability assay.

U-698-M = assay: cells; format: functional, cell-based; details: Homo sapiens
Description: SANGER: Inhibition of human U-698-M cell growth in a cell viability assay.

CPC-N = assay: cells; format: functional, cell-based; details: Homo sapiens;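 further: growth inhibition of CPC-N cells, with a cell viability assay as the readout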
Description: SANGER: Inhibition of human CPC-N cell growth in a cell viability assay.

MRK-nu-1 = assay: cells; format: functional, cell-based; details: Homo sapiens;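 further: cell viability assay measuring growth suppression of human MRK-nu-1 cells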
Description: SANGER: Inhibition of human MRK-nu-1 cell growth in a cell viability assay.

BC1 cell line = assay: SANGER: Inhibition of human BC-1 cell growth in a cell viability assay.; format: functional, cell-based
NCI-H524 = assay: cells; format: functional, cell-based; details: Homo sapiens;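 further: growth inhibition of human NCI-H524 cells, read out through a cell viability assay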
Description: SANGER: Inhibition of human NCI-H524 cell growth in a cell viability assay.

NCCIT = assay: SANGER: Inhibition of human NCCIT cell growth in a cell viability assay.; format: functional, cell-based
NALM-6 = assay: cells; format: functional, cell-based; details: Homo sapiens;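 further: growth inhibition of NALM-6 cells, read out with a cell viability assay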
Description: SANGER: Inhibition of human NALM-6 cell growth in a cell viability assay.

P31-FUJ = assay: cells; format: functional, cell-based; details: Homo sapiens;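 further: growth inhibition of P31-FUJ cells, read out with a viability assay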
Description: SANGER: Inhibition of human P31-FUJ cell growth in a cell viability assay.

CCF-STTG1 = assay: cells; format: functional, cell-based; details: Homo sapiens;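 further: growth inhibition of human CCF-STTG1 cells, determined with a cell viability read-out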
Description: SANGER: Inhibition of human CCF-STTG1 cell growth in a cell viability assay.

NCI-H1734 = assay: cells; format: functional, cell-based; details: Homo sapiens;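 further: growth inhibition of human NCI-H1734 cells, read out with a cell viability assay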
Description: SANGER: Inhibition of human NCI-H1734 cell growth in a cell viability assay.

SNU-475 = assay: cells; format: functional, cell-based; details: Homo sapiens
Description: SANGER: Inhibition of human SNU-475 cell growth in a cell viability assay.

MDA-MB-468 = assay: cells; format: functional, cell-based; details: Homo sapiens
Description: SANGER: Inhibition of human MDA-MB-468 cell growth in a cell viability assay.

EFE-184 = assay: cells; format: functional, cell-based; details: Homo sapiens
Description: SANGER: Inhibition of human EFE-184 cell growth in a cell viability assay.

HCT-15 = assay: cells; format: functional, cell-based, Homo sapiens; details: Homo sapiens, HCT-15;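 further: cell viability readout, IC50 reflecting suppression of HCT-15 cell growth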
Description: SANGER: Inhibition of human HCT-15 cell growth in a cell viability assay.

DV-90 = assay: cells; format: functional, cell-based; details: Homo sapiens;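 further: Read-out is a viability assay, with IC50 reflecting the drop in DV-90 cell growth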
Description: SANGER: Inhibition of human DV-90 cell growth in a cell viability assay.

EW-7 = assay: SANGER: Inhibition of human EW-7 cell growth in a cell viability assay.; format: functional, cell-based; details: Homo sapiens, EW-7
SNG-M = assay: cells; format: functional, cell-based; details: Homo sapiens
Description: SANGER: Inhibition of human SNG-M cell growth in a cell viability assay.

PLC-PRF-5 = assay: cells; format: functional, cell-based; details: Homo sapiens;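 further: growth inhibition of human PLC-PRF-5 cells, read out with a viability assay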
Description: SANGER: Inhibition of human PLC-PRF-5 cell growth in a cell viability assay.

SK-CO-1 = assay: cells; format: functional, cell-based; details: Homo sapiens;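 further: growth inhibition of SK-CO-1 cells, determined by a viability readout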
Description: SANGER: Inhibition of human SK-CO-1 cell growth in a cell viability assay.

Caov-3 cell line = assay: cells; format: functional, cell-based; details: Homo sapiens;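 further: cell growth inhibition read out by a viability assay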
Description: SANGER: Inhibition of human Caov-3 cell growth in a cell viability assay.

Calu-1 = assay: SANGER: Inhibition of human Calu-1 cell growth in a cell viability assay.; format: functional, cell-based
IPC-298 = assay: SANGER: Inhibition of human IPC-298 cell growth in a cell viability assay.; format: functional, cell-based
HCC1143 = assay: cells; format: functional, cell-based; details: Homo sapiens;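 further: growth inhibition of human HCC1143 cells, read out with a cell viability assay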
Description: SANGER: Inhibition of human HCC1143 cell growth in a cell viability assay.

TT = assay: cells; format: functional, cell-based; details: Homo sapiens
Description: SANGER: Inhibition of human TT cell growth in a cell viability assay.

NCI-H838 = assay: cells; format: functional, cell-based; details: Homo sapiens;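 further: growth inhibition of human NCI-H838 cells, read out by a cell viability assay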
Description: SANGER: Inhibition of human NCI-H838 cell growth in a cell viability assay.

HSC-4 = assay: cells; format: functional, cell-based, Homo sapiens; details: Homo sapiens, HSC-4;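 further: growth inhibition of human HSC-4 cells, read out with a cell viability assay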
Description: SANGER: Inhibition of human HSC-4 cell growth in a cell viability assay.

MFE-296 = assay: SANGER: Inhibition of human MFE-296 cell growth in a cell viability assay.; format: functional, cell-based
C-4-II = assay: SANGER: Inhibition of human C-4-II cell growth in a cell viability assay.; format: functional, cell-based
NCI-H1618 = assay: cells; format: functional, cell-based; details: Homo sapiens;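 further: growth inhibition of human NCI-H1618 cells, measured by a cell viability assay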
Description: SANGER: Inhibition of human NCI-H1618 cell growth in a cell viability assay.

MES-SA = assay: cells; format: functional, cell-based, Homo sapiens; details: Homo sapiens, MES-SA;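 further: growth inhibition of human MES-SA cells, read out with a cell viability assay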
Description: SANGER: Inhibition of human MES-SA cell growth in a cell viability assay.

SNU-423 = assay: cells; format: functional, cell-based, Homo sapiens; details: Homo sapiens, SNU-423
Description: SANGER: Inhibition of human SNU-423 cell growth in a cell viability assay.

COLO 205 = assay: cells; format: functional, cell-based; details: Homo sapiens
Description: SANGER: Inhibition of human COLO-205 cell growth in a cell viability assay.

Measured: IC50

CS(=O)(=O)CCNCc1ccc(-c2ccc3ncnc(Nc4ccc(OCc5cccc(F)c5)c(Cl)c4)c3c2)o1 [LAPATINIB]
1380 nM: LC-1F
92.3 nM: ECC12
> 2000 nM: NCI-H2227 | NCI-H719 | COR-L279 | L-540 | SKM-1 | BL-70 | JIYOYE | TALL-1 | OPM-2 | NCI-H322M | Daudi | CESS | SR | SNU-C1 | NCI-H2196 | MC-CAR | TUR | U-698-M | CPC-N | MRK-nu-1 | BC1 cell line | NCI-H524 | NCCIT | NALM-6 | P31-FUJ

C[C@]1(O)C[C@@H](c2nc(-c3ccc4ccc(-c5ccccc5)nc4c3)c3c(N)nccn32)C1 [LINSITINIB]
2450 nM: HCC1143
189 nM: EW-7
2100 nM: OPM-2
293 nM: SNU-C1
105 nM: COLO 205
not listed: SKM-1 | ECC12
> 2560 nM: all other assays above

C=CCc1cccc(/C=N/NC(=O)CN2CCN(Cc3ccccc3)CC2)c1O [PAC-1]
947 nM: Daudi
1100 nM: JIYOYE | BC1 cell line
2200 nM: L-540
1490 nM: CESS
1220 nM: SNG-M
1530 nM: MC-CAR
703 nM: NALM-6
1970 nM: BL-70
1580 nM: HCT-15
not listed: SKM-1 | ECC12
> 2560 nM: all other assays above
